Experimental data as given in publication PMC6155239, “Targeting PFKFB3 radiosensitizes cancer cells and suppresses homologous recombination” (Nature Communications, 2018).

Legend:
[1] = target: T1, ABL1(E255K)-phosphorylated (Homo sapiens, UniProt P00519, E255K); experiment: KINOMEscan; assay type: binding; details: 2000 nM; read-out: Percent Control
T1 construct: purchased DiscoverX (Eurofins) KINOMEscan / scanEDGE, inferred from the naming style

ACVR1B = target: T2, ACVR1B (Homo sapiens, UniProt P36896); experiment: KINOMEscan; assay type: binding; details: 2000 nM; read-out: Percent Control
T2 construct: purchased DiscoverX (Eurofins) KINOMEscan / scanEDGE, inferred from the naming style
T2 sequence (P36896 24-505): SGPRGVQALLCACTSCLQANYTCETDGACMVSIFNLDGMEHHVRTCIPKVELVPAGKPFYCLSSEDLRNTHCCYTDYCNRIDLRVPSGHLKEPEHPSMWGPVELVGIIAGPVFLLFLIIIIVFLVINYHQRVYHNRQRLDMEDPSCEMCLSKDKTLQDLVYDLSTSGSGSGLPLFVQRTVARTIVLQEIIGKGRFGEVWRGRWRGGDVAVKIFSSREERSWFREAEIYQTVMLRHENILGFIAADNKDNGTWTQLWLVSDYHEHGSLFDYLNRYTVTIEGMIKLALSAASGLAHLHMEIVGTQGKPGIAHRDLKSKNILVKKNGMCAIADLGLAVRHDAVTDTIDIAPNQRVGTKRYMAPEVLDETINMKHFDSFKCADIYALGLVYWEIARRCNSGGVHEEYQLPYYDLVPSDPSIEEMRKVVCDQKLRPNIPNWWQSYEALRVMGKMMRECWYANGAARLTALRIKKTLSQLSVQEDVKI

ADCK3 = target: T3, ADCK3 (Homo sapiens, UniProt Q8NI60); experiment: KINOMEscan; assay type: binding; details: 2000 nM; read-out: Percent Control
T3 construct: purchased DiscoverX (Eurofins) KINOMEscan / scanEDGE, inferred from the naming style
T3 sequence (Q8NI60 163-647): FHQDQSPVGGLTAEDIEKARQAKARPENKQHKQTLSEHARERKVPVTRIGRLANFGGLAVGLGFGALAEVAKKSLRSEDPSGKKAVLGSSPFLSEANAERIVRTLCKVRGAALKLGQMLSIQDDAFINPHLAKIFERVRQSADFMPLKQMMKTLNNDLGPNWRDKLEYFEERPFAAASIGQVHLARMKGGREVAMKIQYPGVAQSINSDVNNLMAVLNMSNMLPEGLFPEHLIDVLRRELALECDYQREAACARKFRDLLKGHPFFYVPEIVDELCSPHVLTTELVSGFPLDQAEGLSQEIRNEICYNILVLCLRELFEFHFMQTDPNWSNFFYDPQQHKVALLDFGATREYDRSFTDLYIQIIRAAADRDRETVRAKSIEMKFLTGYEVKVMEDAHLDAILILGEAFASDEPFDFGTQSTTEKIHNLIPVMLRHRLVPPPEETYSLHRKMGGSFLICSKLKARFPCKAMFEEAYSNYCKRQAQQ

ALK = target: T4, ALK (Homo sapiens, UniProt Q9UM73); experiment: KINOMEscan; assay type: binding; details: 2000 nM; read-out: Percent Control
T4 construct: purchased DiscoverX (Eurofins) KINOMEscan / scanEDGE, inferred from the naming style
T4 sequence (Q9UM73 19-1620): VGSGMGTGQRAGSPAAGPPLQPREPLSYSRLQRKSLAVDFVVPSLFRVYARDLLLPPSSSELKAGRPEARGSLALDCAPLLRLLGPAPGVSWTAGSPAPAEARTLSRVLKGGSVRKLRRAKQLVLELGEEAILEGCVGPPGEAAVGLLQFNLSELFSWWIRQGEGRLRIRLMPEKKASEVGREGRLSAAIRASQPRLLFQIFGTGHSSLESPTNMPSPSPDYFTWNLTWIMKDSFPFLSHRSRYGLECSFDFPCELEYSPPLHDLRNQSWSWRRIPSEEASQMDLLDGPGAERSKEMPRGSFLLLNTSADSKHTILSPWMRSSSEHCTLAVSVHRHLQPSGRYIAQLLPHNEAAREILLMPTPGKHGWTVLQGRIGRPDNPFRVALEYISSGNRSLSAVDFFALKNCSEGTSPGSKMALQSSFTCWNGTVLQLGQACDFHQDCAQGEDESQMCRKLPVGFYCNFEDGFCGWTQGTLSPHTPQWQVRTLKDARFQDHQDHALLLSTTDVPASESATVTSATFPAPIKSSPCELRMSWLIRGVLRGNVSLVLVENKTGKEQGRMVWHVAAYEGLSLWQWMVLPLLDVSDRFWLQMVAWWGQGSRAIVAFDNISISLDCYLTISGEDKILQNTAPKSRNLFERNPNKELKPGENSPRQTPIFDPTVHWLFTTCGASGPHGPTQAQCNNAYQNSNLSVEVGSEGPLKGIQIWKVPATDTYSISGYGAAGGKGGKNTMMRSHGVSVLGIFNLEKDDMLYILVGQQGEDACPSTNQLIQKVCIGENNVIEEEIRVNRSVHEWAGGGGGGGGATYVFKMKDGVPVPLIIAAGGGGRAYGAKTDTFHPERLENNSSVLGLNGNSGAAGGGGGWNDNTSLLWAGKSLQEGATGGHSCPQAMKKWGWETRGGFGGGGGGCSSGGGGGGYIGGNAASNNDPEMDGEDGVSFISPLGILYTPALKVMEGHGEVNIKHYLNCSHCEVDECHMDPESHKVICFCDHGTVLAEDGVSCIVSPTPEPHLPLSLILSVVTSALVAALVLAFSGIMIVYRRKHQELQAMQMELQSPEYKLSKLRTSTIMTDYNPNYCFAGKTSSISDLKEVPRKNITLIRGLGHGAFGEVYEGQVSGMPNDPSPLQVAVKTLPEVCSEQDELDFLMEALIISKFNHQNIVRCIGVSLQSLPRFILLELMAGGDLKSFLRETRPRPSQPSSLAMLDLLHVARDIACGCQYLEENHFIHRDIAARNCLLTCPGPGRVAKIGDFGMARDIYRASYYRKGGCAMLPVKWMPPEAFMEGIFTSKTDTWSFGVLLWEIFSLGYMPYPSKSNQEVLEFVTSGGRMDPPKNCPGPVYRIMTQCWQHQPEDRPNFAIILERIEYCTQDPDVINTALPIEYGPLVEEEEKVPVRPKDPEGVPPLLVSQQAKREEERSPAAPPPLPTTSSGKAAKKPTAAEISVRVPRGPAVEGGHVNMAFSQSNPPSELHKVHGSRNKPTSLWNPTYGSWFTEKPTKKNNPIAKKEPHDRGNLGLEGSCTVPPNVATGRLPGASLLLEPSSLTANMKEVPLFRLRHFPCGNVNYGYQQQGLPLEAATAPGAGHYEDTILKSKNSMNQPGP

AURKB = target: T5, AURKB (Homo sapiens, UniProt Q96GD4); experiment: KINOMEscan; assay type: binding; details: 2000 nM; read-out: Percent Control
T5 construct: purchased DiscoverX (Eurofins) KINOMEscan / scanEDGE, inferred from the naming style
T5 sequence (Q96GD4 whole entry): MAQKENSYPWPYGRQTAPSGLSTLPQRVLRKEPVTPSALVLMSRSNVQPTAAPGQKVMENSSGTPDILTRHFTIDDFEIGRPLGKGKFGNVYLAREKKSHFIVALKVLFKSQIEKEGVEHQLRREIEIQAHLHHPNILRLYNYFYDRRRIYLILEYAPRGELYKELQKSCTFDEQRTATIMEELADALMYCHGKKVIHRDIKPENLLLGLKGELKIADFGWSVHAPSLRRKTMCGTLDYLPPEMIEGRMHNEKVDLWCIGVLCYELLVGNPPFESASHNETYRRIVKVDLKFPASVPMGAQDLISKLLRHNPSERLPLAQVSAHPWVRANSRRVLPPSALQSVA

BRAF(V600E) = target: T6, BRAF(V600E) (Homo sapiens, UniProt P15056, V600E); experiment: KINOMEscan; assay type: binding; details: 2000 nM; read-out: Percent Control
T6 construct: purchased DiscoverX (Eurofins) KINOMEscan / scanEDGE, inferred from the naming style

BTK = target: T7, BTK (Homo sapiens, UniProt Q06187); experiment: KINOMEscan; assay type: binding; details: 2000 nM; read-out: Percent Control
T7 construct: purchased DiscoverX (Eurofins) KINOMEscan / scanEDGE, inferred from the naming style

CDK11 = target: T8, CDK11 (Homo sapiens, UniProt Q9BWU1); experiment: KINOMEscan; assay type: binding; details: 2000 nM; read-out: Percent Control
T8 construct: purchased DiscoverX (Eurofins) KINOMEscan / scanEDGE, inferred from the naming style

CSNK1G2 = target: T9, CSNK1G2 (Homo sapiens, UniProt P78368); experiment: KINOMEscan; assay type: binding; details: 2000 nM; read-out: Percent Control
T9 construct: purchased DiscoverX (Eurofins) KINOMEscan / scanEDGE, inferred from the naming style
T9 sequence (P78368 whole entry): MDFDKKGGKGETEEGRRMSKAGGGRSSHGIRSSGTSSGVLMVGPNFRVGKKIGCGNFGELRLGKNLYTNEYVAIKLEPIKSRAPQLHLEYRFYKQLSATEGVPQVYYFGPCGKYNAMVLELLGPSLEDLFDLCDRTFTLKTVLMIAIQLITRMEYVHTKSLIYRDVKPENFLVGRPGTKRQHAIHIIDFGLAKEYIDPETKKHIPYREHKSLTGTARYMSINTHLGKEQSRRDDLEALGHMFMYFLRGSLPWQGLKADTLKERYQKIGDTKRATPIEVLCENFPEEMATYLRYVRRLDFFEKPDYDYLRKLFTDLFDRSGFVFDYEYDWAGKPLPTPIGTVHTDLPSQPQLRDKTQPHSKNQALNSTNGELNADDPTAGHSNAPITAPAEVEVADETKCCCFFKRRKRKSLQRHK

DYRK1B = target: T10, DYRK1B (Homo sapiens, UniProt Q9Y463); experiment: KINOMEscan; assay type: binding; details: 2000 nM; read-out: Percent Control
T10 construct: purchased DiscoverX (Eurofins) KINOMEscan / scanEDGE, inferred from the naming style

EPHA2 = target: T11, EPHA2 (Homo sapiens, UniProt P29317); experiment: KINOMEscan; assay type: binding; details: 2000 nM; read-out: Percent Control
T11 construct: purchased DiscoverX (Eurofins) KINOMEscan / scanEDGE, inferred from the naming style

[2] = test system: cell lines representing pancreatic, gastric, and colon cancer; experiment: Cell viability of cancer cell lines; assay type: cell-based; details: prolonged incubation (72 h)
Protocol: Cell proliferation was assayed by quantifying total cellular protein levels after indicated treatments and incubation times using the Sulphorhodamine B kit, TOX6 (Sigma-Aldrich). MIA PaCa-2, PANC1, SW620, and SW480 cells were plated at a density of 6 × 10^3 cells/well in 96-well plates (CLS3596, Sigma-Aldrich) and allowed to attach overnight. The following day, compounds were diluted in dose–response curve mode, required volume was transferred to assay medium to a maximal DMSO concentration of 0.1%. The diluted compounds were added to the cells with a starting dose–response concentration of 100 µM, all compounds were tested in duplicate plates. After 72 h of incubation with compounds, total protein per well was precipitated using TCA according to the manufacturer's instructions; the sulphorhodamine dye was added to the air-dried wells. After 20 min incubation at room temperature, the dye was discarded and the samples were gently rinsed with 1% HOAc until clear. After air drying, bound dye was solubilized in 10 mM Tris base, and the absorbance of dye was measured at 565 nm. To quantify growth, samples were collected also at t = 0 h, and the resulting absorbance was set to 100%.

PFKFB3 = PFKFB3 (Homo sapiens, UniProt Q16875); experiment: Cellular thermal shift assay (CETSA) in U2OS cells; assay type: cell-based; details: 10 µM
PFKFB3, sequence (Q16875 whole entry): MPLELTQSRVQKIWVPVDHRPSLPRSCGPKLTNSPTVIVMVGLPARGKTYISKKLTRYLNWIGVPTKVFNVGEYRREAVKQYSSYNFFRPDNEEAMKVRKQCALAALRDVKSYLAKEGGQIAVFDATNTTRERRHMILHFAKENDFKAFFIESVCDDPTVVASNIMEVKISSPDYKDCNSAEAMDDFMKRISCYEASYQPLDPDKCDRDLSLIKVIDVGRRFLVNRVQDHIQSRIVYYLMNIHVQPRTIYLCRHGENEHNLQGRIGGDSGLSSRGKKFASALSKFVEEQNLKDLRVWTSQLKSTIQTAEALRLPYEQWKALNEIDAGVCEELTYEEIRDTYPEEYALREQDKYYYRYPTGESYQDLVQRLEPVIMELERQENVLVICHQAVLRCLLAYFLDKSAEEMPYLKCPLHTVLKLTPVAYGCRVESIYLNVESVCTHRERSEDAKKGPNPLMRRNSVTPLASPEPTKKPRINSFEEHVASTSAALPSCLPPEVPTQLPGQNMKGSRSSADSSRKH
Protocol: U2OS cells in exponential growth rate were treated with indicated inhibitors at a concentration of 10 μM or DMSO for 6, 24, or 72 h and then harvested using trypsin, upon detachment trypsinization was inhibited by addition of cell media and cells spun down at 200 × g for 10 min at 4 °C. The pellet was resuspended in TBS (50 mM Tris–HCl (pH 7.5) and 150 mM NaCl) supplemented with protease inhibitors (Roche), cells were lysed by a freeze–thaw circle three times at −80 °C for 3 min and then 37 °C for 3 min. Debris was removed by centrifugation at 16,000 × g for 20 min at 4 °C, cell lysates were aliquoted and heated to indicated temperatures for 3 min. Insoluble proteins were then removed by centrifugation at 16,000 × g at 4 °C for 20 min, supernatant was transferred to new tubes and protein concentration was determined using BCA assay (Pierce). Western blot was performed according to standard procedures.

U2OS cells [3] = experiment: IR-induced RAD51 / RPA32 foci, confocal; assay type: cell-based; details: in combination with IR
Protocol: Cells were grown on sterilized coverslips and fixed with 4% paraformaldehyde (PFA) (Santa Cruz) and 2% sucrose (Sigma Aldrich) for 15 min at room temperature. They were then permeabilized with 0.2% NP-40 (Thermo Scientific) for 10 min at room temperature followed by 30 min of blocking in blocking buffer (2 or 3% BSA, 5% glycerol, 0.1% Tween 20 (Sigma Aldrich)). Coverslips were subsequently incubated for 1, 2, or 24 h in primary antibody and 40 min in secondary antibody diluted in blocking buffer, DNA was stained with DAPI for 10 min. The coverslips were mounted with Prolonged Gold mounting medium (Invitrogen). Images were acquired with a Zeiss LSM 780 microscope using a 40× or 63× oil immersion lens and processed in ImageJ and CellProfiler.
To visualize PFKFB3, RPA32, RAD51, BRCA1, 53BP1, and RRM2 IRIF, the cells were first washed with PBS and then incubated for 5 min at room temperature with cytoskeleton (CSK) buffer containing 10 mM PIPES pH 7.0 (Sigma Aldrich), 100 mM NaCl (EMD Millipore), 300 mM sucrose (Sigma Aldrich), 3 mM MgCl2 (Sigma Aldrich), and 0.7% Triton X-100 (Sigma Aldrich). After these treatments, the cells were washed once again with PBS and then fixed in 4% PFA with 2% sucrose.

BJ TERT cells = experiment: Clonogenic survival, BJ TERT; assay type: cell-based; details: with and without IR (2 Gy), concentrations active in BJ RAS
Protocol: U2OS cells were transfected with indicated siRNAs and 24 h later exposed to IR (2 Gy) or left untreated and allowed to recover for 4 h. One-hundred U2OS cells were then seeded into 6-well plates and after 10 days colonies were fixed and stained with 4% methylene blue (Sigma Aldrich) in methanol. BJ TERT (500 cells), BJ RAS (200 cells), or U2OS (200 cells) were seeded into 6-well plates 24 h prior to treatment with inhibitors as indicated or vehicle for 24 h and then subjected to IR (2 Gy). The inhibitors were washed out 72 h later and colonies were fixed 4 days (BJ RAS) or 7 days (BJ TERT) later with 4% methylene blue in methanol.

U2OS cells [4] = experiment: DNA fiber assay; assay type: cell-based; details: 10 μM
Protocol: 1 × 10^5 cells were seeded into 6-well plates, 24 h later cells were treated with the indicated inhibitors or nucleosides, and 24 h later DNA was labeled with 25 μM CldU (Sigma, C6891) in pre-warmed DMEM for 20 min, washed and then labeled with 250 μM IdU (Sigma I7125) in pre-warmed DMEM for 20 min, before harvesting by scraping in cold PBS. Harvested cells were diluted to 1 × 10^6 cells/mL, spreading and staining was performed as described previously described. Fluorescence images were captured using a Zeiss LSM 780 inverted confocal microscope using a 63 × 1.4 oil immersion objective, excitation wavelengths of 488 and 555 nm, and analyzed using the ImageJ software. At least 300 unidirectional forks labeled with both CldU and IdU were measured for every condition.

T1 sequence (P00519 whole entry E255K): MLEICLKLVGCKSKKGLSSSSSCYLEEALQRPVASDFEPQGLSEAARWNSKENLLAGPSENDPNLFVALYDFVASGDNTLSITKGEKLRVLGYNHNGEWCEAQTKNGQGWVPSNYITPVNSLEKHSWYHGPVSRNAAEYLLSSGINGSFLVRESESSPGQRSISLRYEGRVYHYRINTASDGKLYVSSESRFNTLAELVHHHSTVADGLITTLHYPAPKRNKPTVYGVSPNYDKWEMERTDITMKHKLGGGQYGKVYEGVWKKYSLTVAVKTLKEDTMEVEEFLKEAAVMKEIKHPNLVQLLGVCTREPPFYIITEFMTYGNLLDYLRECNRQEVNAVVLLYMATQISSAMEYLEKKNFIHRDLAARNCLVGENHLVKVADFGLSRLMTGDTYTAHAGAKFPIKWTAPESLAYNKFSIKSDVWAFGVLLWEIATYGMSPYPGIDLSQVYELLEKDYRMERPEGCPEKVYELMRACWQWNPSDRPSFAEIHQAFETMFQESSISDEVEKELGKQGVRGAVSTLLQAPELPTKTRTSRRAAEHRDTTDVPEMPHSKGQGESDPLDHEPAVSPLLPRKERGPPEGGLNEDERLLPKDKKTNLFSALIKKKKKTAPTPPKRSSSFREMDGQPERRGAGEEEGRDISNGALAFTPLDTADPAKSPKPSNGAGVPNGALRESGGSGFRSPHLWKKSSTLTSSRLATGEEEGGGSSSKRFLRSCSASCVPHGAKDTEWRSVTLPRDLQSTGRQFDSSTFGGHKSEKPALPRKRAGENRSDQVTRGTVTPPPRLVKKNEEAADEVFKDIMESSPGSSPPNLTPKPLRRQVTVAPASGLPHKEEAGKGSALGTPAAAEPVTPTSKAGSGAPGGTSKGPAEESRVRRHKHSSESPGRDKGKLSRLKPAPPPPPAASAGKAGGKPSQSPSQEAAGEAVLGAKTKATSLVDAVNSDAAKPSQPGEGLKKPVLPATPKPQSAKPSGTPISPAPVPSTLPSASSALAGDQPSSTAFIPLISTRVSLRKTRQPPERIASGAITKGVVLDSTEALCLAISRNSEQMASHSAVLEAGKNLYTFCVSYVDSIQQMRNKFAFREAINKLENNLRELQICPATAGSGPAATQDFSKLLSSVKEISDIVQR

O=C(O)c1ccc(NS(=O)(=O)c2cccc(-c3cc(F)ccc3O)c2)cc1O [KAN0438241, 4-{[(5′-Fluoro-2′-hydroxybiphenyl-3-yl)sulfonyl]amino}-2-hydroxybenzoic acid]
remaining binding at 2 µM [1]: 100%
remaining binding at 2 µM (ACVR1B): 100%
remaining binding at 2 µM (ADCK3): 100%
remaining binding at 2 µM (ALK): 100%
remaining binding at 2 µM (AURKB): 92%
remaining binding at 2 µM (BRAF(V600E)): 97%
remaining binding at 2 µM (BTK): 100%
remaining binding at 2 µM (CDK11): 96%
remaining binding at 2 µM (CSNK1G2): 97%
remaining binding at 2 µM (DYRK1B): 86%
remaining binding at 2 µM (EPHA2): 100%

O=C(OCCO)c1ccc(NS(=O)(=O)c2cccc(-c3cc(F)ccc3O)c2)cc1O [KAN0438757, 2-Hydroxyethyl-4-{[(5′-fluoro-2′-hydroxybiphenyl-3-yl)sulfonyl]amino}-2-hydroxybenzoate]
effect on cell viability [2]: significantly reduce cell viability
intracellular target engagement of PFKFB3 (CETSA) (PFKFB3): demonstrated intracellular target engagement
IR-induced recruitment of RPA32 and RAD51 into repair foci (in words) (U2OS cells [3]): disrupted
clonogenic survival of BJ TERT (in words) (BJ TERT cells): only marginally affected
incorporation of CldU and IdU / replication fork speed (in words) (U2OS cells [4]): severely decreased
